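Briefly, cells in 96-well plates were exposed to five compound concentrations for 48 h, and endpoints were estimated by linear interpolation. GI50 is the concentration that inhibits growth by half. Definition used: TGI = concentration required for complete inhibition of growth.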
Columns and labels:
Test in all cases: NCI anticancer screen, dose series, 48 h
[1] = system: SF-268 CNS
[2] = system: RPMI-8226 leukemia
[3] = system: M14 melanoma
[4] = system: U251 CNS
[5] = system: HCT-116 colon
[6] = system: OVCAR-4 ovarian
[7] = system: NCI-H23 lung
[8] = system: IGROV1 ovarian
[9] = system: A549 NSCLC
[10] = system: UACC-257 melanoma
[11] = system: CAKI-1 renal
[12] = system: NCI-H226 lung
[13] = system: SK-OV-3 ovarian
[14] = system: OVCAR-5 ovarian
[15] = system: SF-295 CNS
[16] = system: LOX IMVI melanoma
[17] = system: HCC-2998 colon
[18] = system: HT29 colon
[19] = system: TK-10 renal
[20] = system: UO-31 renal
[21] = system: SN12C renal
[22] = system: MDA-MB-231 breast
[23] = system: 786-0 renal
[24] = system: SK-MEL-2 melanoma
[25] = system: HCT-15 colon
[26] = system: DU-145 prostate
[27] = system: HS 578T breast
[28] = system: PC-3 prostate
[29] = system: RXF 393 renal
[30] = system: MCF7 breast
[31] = system: OVCAR-8 ovarian
[32] = system: SF-539 CNS
[33] = system: NCI-H460 lung
[34] = system: SNB-19 CNS
[35] = system: SK-MEL-5 melanoma
[36] = system: NCI/ADR-RES ovarian
[37] = system: SNB-75 CNS
[38] = system: OVCAR-3 ovarian
[39] = system: MALME-3M melanoma
[40] = system: ACHN renal
[41] = system: SK-MEL-28 melanoma
[42] = system: BT-549 breast
[43] = system: CCRF-CEM leukemia
[44] = system: A498 renal
[45] = system: HOP-92 NSCLC

COc1cc2c(Oc3ccc(-c4cnc(Nc5ccc(F)cc5)n(C)c4=O)cc3F)ccnc2cc1OCCCN1CCOCC1
GI50 [1]: 1.46 µM
TGI [1]: 3.38 µM
GI50 [2]: 1.84 µM
TGI [2]: 4.71 µM
GI50 [3]: 0.442 µM
TGI [3]: 1.82 µM
GI50 [4]: 1.66 µM
TGI [4]: 3.2 µM
GI50 [5]: 1.19 µM
TGI [5]: 2.51 µM
GI50 [6]: 1.74 µM
TGI [6]: 7.49 µM
GI50 [7]: 1.15 µM
TGI [7]: 2.75 µM
GI50 [8]: 0.646 µM
TGI [8]: 2.33 µM
GI50 [9]: 1.66 µM
TGI [9]: 3.42 µM
GI50 [10]: 1.1 µM
TGI [10]: 2.6 µM
GI50 [11]: 1.05 µM
TGI [11]: 2.46 µM
GI50 [12]: 1.16 µM
TGI [12]: 8.15 µM
GI50 [13]: 1.84 µM
TGI [13]: 3.39 µM
GI50 [14]: 1.04 µM
TGI [14]: 2.45 µM
GI50 [15]: 0.663 µM
TGI [15]: 1.99 µM
GI50 [16]: 1.23 µM
TGI [16]: 2.55 µM
GI50 [17]: 1.48 µM
TGI [17]: 2.94 µM
GI50 [18]: 0.311 µM
TGI [18]: 1.64 µM
GI50 [19]: 1.94 µM
TGI [19]: 3.92 µM
GI50 [20]: 0.906 µM
TGI [20]: 2.21 µM
GI50 [21]: 0.528 µM
TGI [21]: 2.27 µM
GI50 [22]: 1.4 µM
TGI [22]: 2.93 µM
GI50 [23]: 1.54 µM
TGI [23]: 3.1 µM
GI50 [24]: 1.53 µM
TGI [24]: 3.19 µM
GI50 [25]: 1.18 µM
TGI [25]: 2.75 µM
GI50 [26]: 1.56 µM
TGI [26]: 3.17 µM
GI50 [27]: 0.933 µM
TGI [27]: 3.4 µM
GI50 [28]: 2.05 µM
TGI [28]: 6.39 µM
GI50 [29]: 0.759 µM
TGI [29]: 2.04 µM
GI50 [30]: 0.783 µM
TGI [30]: 2.47 µM
GI50 [31]: 1.87 µM
TGI [31]: 4.72 µM
GI50 [32]: 0.464 µM
TGI [32]: 1.62 µM
GI50 [33]: 1.51 µM
TGI [33]: 3.22 µM
GI50 [34]: 2.03 µM
TGI [34]: 4.52 µM
GI50 [35]: 1.45 µM
TGI [35]: 2.77 µM
GI50 [36]: 1.94 µM
TGI [36]: 6.75 µM
GI50 [37]: 0.61 µM
TGI [37]: 1.91 µM
GI50 [38]: 1.64 µM
TGI [38]: 3.15 µM
GI50 [39]: 0.291 µM
TGI [39]: 1.41 µM
GI50 [40]: 0.864 µM
TGI [40]: 2.15 µM
GI50 [41]: 0.97 µM
TGI [41]: 2.28 µM
GI50 [42]: 1.86 µM
TGI [42]: 3.49 µM
GI50 [43]: 3.04 µM
TGI [43]: > 100 µM
GI50 [44]: 0.95 µM
TGI [44]: 2.46 µM
GI50 [45]: 0.083 µM
TGI [45]: 1.01 µM

Reference: PubChem BioAssay (NCI)
